Measurements from publication PMC5384001 (Scientific Reports, 2017).
Positions count from the first letter of the chain named. Several values for one entry are separate records, joined by “and”; a condition that tells them apart may be missing. Identical values can stand only once.

Legend:
GluD2-Lc-(HS1)GluN1 = target: T1, GluD2-Lc-(HS1)GluN1 (Rattus norvegicus, UniProt Q63226, A654T/D542Y/S544G/Y543Q); experiment: Two-electrode voltage clamp in Xenopus oocytes, inhibition of spontaneous currents; format: cell-based; conditions: fraction of spontaneous current inhibited by saturating D-serine
T1 construct: the function of full-length receptors as well, we introduced them into the GluD2 lurcher mutant (GluD2-Lc); expressed in transfected cells; host or cells: Xenopus laevis oocytes injected with cRNA
T1 sequence (Q63226 24-1007 D542Y/Y543Q/S544G/A654T): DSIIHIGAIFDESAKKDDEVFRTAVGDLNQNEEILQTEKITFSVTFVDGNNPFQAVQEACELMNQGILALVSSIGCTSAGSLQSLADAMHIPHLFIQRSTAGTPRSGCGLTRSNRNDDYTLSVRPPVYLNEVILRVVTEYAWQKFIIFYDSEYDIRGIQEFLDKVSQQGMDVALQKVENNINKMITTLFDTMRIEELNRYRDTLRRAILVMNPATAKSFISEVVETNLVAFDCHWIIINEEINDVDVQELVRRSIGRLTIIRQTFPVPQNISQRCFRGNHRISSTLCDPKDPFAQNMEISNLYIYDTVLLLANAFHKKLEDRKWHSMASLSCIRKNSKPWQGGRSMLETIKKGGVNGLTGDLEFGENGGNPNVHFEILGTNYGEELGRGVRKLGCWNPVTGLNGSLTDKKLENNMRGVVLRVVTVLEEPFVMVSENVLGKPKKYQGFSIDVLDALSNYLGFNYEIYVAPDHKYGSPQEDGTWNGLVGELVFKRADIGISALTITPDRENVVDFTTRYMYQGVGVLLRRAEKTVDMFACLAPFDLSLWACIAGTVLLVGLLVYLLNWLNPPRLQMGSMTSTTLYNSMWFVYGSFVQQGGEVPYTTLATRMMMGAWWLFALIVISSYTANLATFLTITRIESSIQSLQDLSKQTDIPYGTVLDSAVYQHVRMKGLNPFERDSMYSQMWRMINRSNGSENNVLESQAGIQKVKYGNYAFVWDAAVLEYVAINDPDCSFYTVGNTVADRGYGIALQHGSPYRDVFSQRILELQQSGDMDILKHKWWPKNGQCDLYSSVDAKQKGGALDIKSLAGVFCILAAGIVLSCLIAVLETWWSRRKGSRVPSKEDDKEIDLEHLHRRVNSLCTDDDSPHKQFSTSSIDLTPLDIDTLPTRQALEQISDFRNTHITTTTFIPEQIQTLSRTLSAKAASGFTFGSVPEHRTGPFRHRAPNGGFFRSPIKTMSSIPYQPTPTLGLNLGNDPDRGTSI
Description: (§1) All cDNAs for expression in Xenopus oocytes were cloned into the vector pSGEM[30]. Point mutants of GluD2-Lc were constructed by overlap extension PCR with mutagenic oligonucleotide primers. The GluD2-Lc-(H)GluN1 chimera was constructed by transferring the S1- and S2-encoding sequences from GluD2-LBD-(H)GluN1 to GluD2-Lc via overlap extension PCR using tail primers. The S1 and S2 sequences were transferred separately, yielding GluD2-Lc-(HS1)GluN1 and GluD2-Lc-(HS2)GluN1 constructs. GluD2-Lc-(H)GluN1 was then produced from these by another overlap extension PCR. Complementary RNA (cRNA) for injection into oocytes was synthesised from 1 μg of linearised template DNA with the mMESSAGE mMACHINE in vitro transcription kit (Ambion, Austin, TX, USA).
(§2) Oocytes were obtained by surgically removing parts of the ovaries from Xenopus laevis (Nasco, Fort Atkinson, WI, USA) anaesthetised with 1.5 g/L 3-aminobenzoic acid ethylester (Sigma, Taufkirchen, Germany). […] Oocytes were injected with 11 ng cRNA (10 ng of each cRNA for co-expression of GluN1 and GluN2A) using a nanoliter injector (WPI, Sarasota, FL, USA). Four days after cRNA injection, current responses were recorded under voltage clamp at –70 mV with a Turbo Tec-10CD amplifier (npi electronic, Tamm, Germany) controlled by Patchmaster software (HEKA, Lambrecht, Germany). Currents were filtered with a 20 Hz low-pass filter and then digitised with a sampling rate of 50 Hz. Recording electrodes were pulled from borosilicate glass (Hilgenberg, Malsfeld, Germany) with an L/M-3P-A vertical pipette puller (List-Medical), filled with 3 M KCl, and had resistances of 0.5–5 MΩ (voltage electrode) or 0.5–1.5 MΩ (current electrode). Recordings were performed in a 50 μL chamber under constant superfusion with extracellular solution at a flow rate of 3–5 mL/min. […] Finally, Ba-NFR and then NMDGR were applied again to check for reversibility.

GluD2-Lc = target: T2, GluD2-Lc (Rattus norvegicus, UniProt Q63226, A654T); experiment: as above; format: cell-based
T2 construct: the function of full-length receptors as well, we introduced them into the GluD2 lurcher mutant (GluD2-Lc); expressed in transfected cells; host or cells: Xenopus laevis oocytes injected with cRNA
T2 sequence (Q63226 24-1007 A654T): T1 sequence (Q63226 24-1007 D542Y/Y543Q/S544G/A654T) with Y519D, Q520Y, G521S
Description: as §1, §2

N[C@H](CO)C(=O)O [D-serine]
D-serine efficacy Mean ± SEM (GluD2-Lc-(HS1)GluN1): 29% and 29.1 ± 1.1% | D-serine efficacy Mean ± SEM (GluD2-Lc; fraction of spontaneous current inhibited by saturating D-serine): 46% and 46.2 ± 1.9% | maximal, absolute, D-serine-induced steady-state inhibition of spontaneous currents (GluD2-Lc; n = 20): 222 ± 36 nA
